From paper PMC4388716, “An Exploratory Study on ^99mTc-RGD-BBN Peptide Scintimammography in the Assessment of Breast Malignant Lesions Compared to ^99mTc-3P4-RGD2” (PLoS ONE, 2015)

Tests used:
[1] = cited from earlier work; for Effective radiation dose of conventional nuclear medical imaging agent examination: in vivo
Description: The effective radiation dose to the body of ^99mTc-3P4-RGD2 and ^99mTc-RGD-BBN were 1.15 ± 0.13 mSv and 0.65 ± 0.07 mSv respectively ^9. According to the 2007 Recommendations of the International Commission on Radiological Protection (ICRP), radiation equivalent dose which occupational workers’ vital organs were exposed to should be less than 500mSv and radiosensitive organs should be less than 150mSv. In our study, the mean absorbed dose equivalent for the whole body was 2.02E-03 mSv / MBq in healthy males and 2.31E-03 mSv / MBq in healthy females. Compared with other clinical mar ...

breast malignant lesions = test: SPECT/CT scintimammography of patients with breast malignant tumors; type: in vivo, human; parameters: key to Visual uptake grading: grade 1 = no abnormal increased uptake; grade 2 = mildly increased or heterogeneous uptake; grade 3 = definite focal increased uptake; conditions: for Visual uptake grading: SPECT/CT 1 h p.i., 3 readers
Description: All patients were sent to the ^99mTc-3P4-RGD2 and ^99mTc-RGD-BBN SMM on an individual basis. The time interval between two imaging procedures was 48–54 hr. Finally, ^99mTc-RGD-BBN and ^99mTc-3P4-RGD2 SMM results were compared with each other. To be included, a patient had to be without any other history of breast disease. Exclusion criteria included pregnancy, lactation and a body weight greater than 80 kg.
The 3P4-RGD2 and RGD-BBN were generously provided by the Medical Isotopes Research Center of Peking University in freeze-dried kits form. Na^99mTcO4 was obtained from a commercial ^99Mo/^99mTc generator (Beijing Atom High Tech Co., Ltd.). The kit for preparation of ^99mTc-3P4-RGD2 was formulated by containing, per millilitre, 20 μg of HYNIC-3P4-RGD2, 5 mg of TPPTS, 6.5 mg of tricine, 40 mg of mannitol, 38.5 mg of disodium succinate hexahydrate and 12.7 mg of succinic acid. Radiolabeling and quality control procedures for ^99mTc-3P4-RGD2 were performed as described previously ^4. The kit for preparation of ^99mTc-RGD-BBN was formulated by containing, per millilitre, 20 μg of HYNIC-RGD-BBN, 6 mg of TPPTS, 10 mg of tricine, 40 mg of mannitol, 38.5 mg of disodium succinate hexahydrate and 12.7 mg of succinic acid. Then 1 mL of Na^99mTcO4 solution in saline was added to each kit vial followed by 30 min incubation at 100°C. The quality control was conducted by radioactive thin layer chromatography (ITLC), counting the high labeling yield of about 95%. Both ^99mTc-3P4-RGD2 and ^99mTc-RGD-BBN with a mean radioactivity of 299 ± 30 MBq and 293 ± 32 MBq were administered via single intravenous bolus injection followed by a 10 mL saline flush. ^99mTc-3P4-RGD2 and ^99mTc-RGD-BBN was performed with SPECT/CT at 1 h after intravenous injection of radiotracers respectively on separate days.
SPECT: Emission images were acquired using a dual-head, large field-of-view scintillation camera (Precedence, Philips Healthcare), equipped with a low-energy, high-resolution and parallel-hole collimator. In all healthy volunteers, planar images in both anterior and posterior views were acquired at 10 min, 30 min, 1 h, 2 h, 4 h, 8 h and 24 h post-injection and were stored digitally, using ^99mTc with a 20% energy window centered on 140 keV and 128×128 matrix. The velocity of scanning was 15 cm/min. SPECT images in all the patients were acquired over 360° (180°per head) in supine position with raised arms during the imaging. Imaging with both radiotracers was performed using 6°angular steps in a 20 s time frame, with a 64×64 matrix size. Distance between the breast and detector was minimized. The position of the patient was recorded in detail and kept consistent to the greatest extent in the second SPECT scan to make sure that the two different SPECT images could be fused to the CT images.
CT images from neck to abdomen were acquired sequentially in a non-dedicated 3rd-generation scanner installed in the SPECT camera gantry, with a 10 mm slice thickness, a maximum current of 2.5 mA and a 140 kV potential. The patients just had one CT scan since ^99mTc-3P4-RGD2 and ^99mTc-RGD-BBN SPECT were undertaken on the same device.
All images were interpreted qualitatively by three experienced nuclear medicine radiologists who were unaware of the clinical history and other test results of all patients. Visual analysis was performed on a per-lesion basis and in a blinded fashion. A 3-point scale system was adopted to describe the uptake degree for breast lesions. […] Homogeneous uptake in both breasts was classified as grade 1. SMM was considered positive for malignancy if the visual score was ≥2. There was no disagreement between three radiologists in our study.

**Q.** For “[^99mTc (HYNIC-3PRGD2) (tricine) (TPPTS)] [99mTc-3P4-RGD2]”, which “Effective radiation dose to the body” value ([1]; per examination (299 ± 30 MBq 99mTc-3P4-RGD2, 293 ± 32 MBq 99mTc-RGD-BBN i.v.)) is on record?
**A.** 1.15 ± 0.13 mSv

**Q.** What about the Visual uptake grading (breast malignant lesions; Patient 1: DCIS, R, 2.3 cm, αvβ3 -, GRPR +) of the same compound?
**A.** 1

**Q.** What about the Visual uptake grading (breast malignant lesions; Patient 2: DCIS, L, 2.0 cm, αvβ3 +, GRPR +) of the same compound?
**A.** 3

**Q.** What about the Visual uptake grading (breast malignant lesions; Patient 3: IDC, L, 5.1 cm, αvβ3 +, GRPR +) of the same compound?
**A.** 3

**Q.** And the Visual uptake grading (breast malignant lesions; Patient 4: IDC, R, 2.1 cm, αvβ3 +, GRPR -)?
**A.** 3

**Q.** And the Visual uptake grading (breast malignant lesions; Patient 5: IDC, L, 5.8 cm, αvβ3 +, GRPR +)?
**A.** 3

**Q.** What about the Visual uptake grading (breast malignant lesions; Patient 6: IDC, L, 6.3 cm, αvβ3 +, GRPR +) of the same compound?
**A.** 3

**Q.** What about the “Malignant lesions detected by SPECT/CT (of 6 malignant lesions in 6 patients)” value (breast malignant lesions; SPECT/CT 1 h after i.v. injection, 4 IDC, 2 DCIS) of the same compound?
**A.** five lesions with clear uptake and the other one with barely uptake

**Q.** For O.O.O=P([O-])([O-])CP(=O)([O-])[O-].[99Tc+4] [99mTc—MDP], which “Effective radiation dose of conventional nuclear medical imaging agent examination” value [1] is on record?
**A.** 5.92 mSv

**Q.** For [99Tc].[C-]#[N+]CC(C)(C)OC.[C-]#[N+]CC(C)(C)OC.[C-]#[N+]CC(C)(C)OC.[C-]#[N+]CC(C)(C)OC.[C-]#[N+]CC(C)(C)OC.[C-]#[N+]CC(C)(C)OC [99mTc—MIBI], which “Effective radiation dose of conventional nuclear medical imaging agent examination” value [1] is on record?
**A.** 7.05 mSv
